Laboratory results reported in US20100215625A1, “EFFICIENT PREPARATION OF NAPHTHOQUINONE ANTICANCER ACTIVE INGREDIENTS” (TAHEEBO JAPAN CO., LTD., priority 2009, published 2010).

Tests used:
various tumor cells = conditions: known from Patent Documents 1, 2 and Nonpatent Document 1; cited from earlier work
[1] = test system: A-549 cells (lung cancer cells); experiment: Cytotoxicity experiment 1: anticancer activity against A-549 cells, viable cell count after 3 days; conditions: Homo sapiens, A549, 72 h, read-out: Cell Viabilities (%) of A-549 (Lung Cancer Cells)
Description: A-549 cells (lung cancer cells; Strain No. ECACC86012804; available from Laboratory Products Dept. of Dainippon Pharmaceuticals Inc. (now Dainippon Sumitomo Pharma Co., Ltd.)) were preliminarily seeded in 35 mm petri dishes containing Dulbecco's modified Eagle medium (DMEM) containing 20% of fetal bovine serum (FBS) in a concentration of 1×10^5/ml. The seeded cells were incubated at 36° C. for 1 day under 5% CO2 and were confirmed to be stuck at the bottom of the petri dishes. The resulting A-549 cells were divided into three groups, to the first group of which were added extracts from a medium used in the ingredient-production system in concentrations of 1, 10, 100 and 1000 μg/ml, to the second group of which was added NQ801 which was known to have an anticancer activity (see Patent Document 2) in said concentrations, and to the third group of which were added ether fractions extracted from Tabebuia avellanedae barks in a conventional manner in said concentrations. These groups were incubated at 36° C. for 3 days, and viable cells were counted and viabilities were calculated.

[2] = test system: MCF-7 cells (breast cancer cells); experiment: Cytotoxicity experiment 2: anticancer activity against MCF-7 cells, viable cell count after 3 days; conditions: Homo sapiens, MCF7, 72 h, read-out: Cell Viabilities (%) of MCF-7 (Breast Cancer Cells)
Description: A-549 cells (lung cancer cells; Strain No. ECACC86012804; available from Laboratory Products Dept. of Dainippon Pharmaceuticals Inc. (now Dainippon Sumitomo Pharma Co., Ltd.)) were preliminarily seeded in 35 mm petri dishes containing Dulbecco's modified Eagle medium (DMEM) containing 20% of fetal bovine serum (FBS) in a concentration of 1×10^5/ml. The seeded cells were incubated at 36° C. for 1 day under 5% CO2 and were confirmed to be stuck at the bottom of the petri dishes. […] These groups were incubated at 36° C. for 3 days, and viable cells were counted and viabilities were calculated.
Cytotoxicity experiments for MCF-7 cells (breast cancer cells; Strain No. ECACC86012803; available from Laboratory Products Dept. of Dainippon Pharmaceuticals Inc. (now Dainippon Sumitomo Pharma Co., Ltd.)) were carried out in the similar manner to the Experiment 1.

In the case of `C[C@H](O)c1cc2c(o1)C(=O)c1cccc(O)c1C2=O` [NQ801, (S)-2-(1-hydroxyethyl)-5-hydroxynaphtho[2,3-b]furan-4,9-dione], the “Cytotoxicity against various tumor cells” value (various tumor cells) is listed as “potent cytotoxicity”, the viability at 1 µg/mL [1] is listed as 90% and the viability at 10 µg/mL [1] is listed as 60%. It also gave a viability at 100 µg/mL [1] of 30%, a viability at 1000 µg/mL [1] of 0% and a viability at 1 µg/mL [2] of 90%. The viability at 10 µg/mL [2] was 60%, the viability at 100 µg/mL [2] was 20% and the viability at 1000 µg/mL [2] was 0%.
